Assay results published in paper PMC4469266 (Bioorganic & medicinal chemistry letters, 2015).

Molecular target: dopamine D1 receptor (Rattus norvegicus, UniProt P18901)
Assay: competition autoradiography with 3H-SCH […] in rat brain slices

dopamine D1 receptor, sequence (P18901 whole entry): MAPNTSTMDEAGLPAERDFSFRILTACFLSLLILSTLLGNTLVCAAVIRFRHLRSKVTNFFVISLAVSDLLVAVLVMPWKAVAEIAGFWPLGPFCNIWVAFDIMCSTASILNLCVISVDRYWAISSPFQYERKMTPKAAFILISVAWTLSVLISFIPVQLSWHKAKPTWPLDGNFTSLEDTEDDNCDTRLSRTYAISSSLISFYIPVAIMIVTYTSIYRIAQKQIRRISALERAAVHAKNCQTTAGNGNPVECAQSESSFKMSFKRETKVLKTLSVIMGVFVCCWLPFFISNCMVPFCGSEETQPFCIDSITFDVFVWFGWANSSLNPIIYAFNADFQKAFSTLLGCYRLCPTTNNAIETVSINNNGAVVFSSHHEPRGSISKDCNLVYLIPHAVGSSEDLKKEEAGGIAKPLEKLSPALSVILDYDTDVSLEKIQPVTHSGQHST

## CN1CCc2cc(Cl)c(O)cc2C(c2cccc(NC[C@H](F)[C@@H](O)[C@H](O)[C@H](O)CO)c2)C1 (stereo partly drawn) [compound 7, 7-chloro-8-hydroxy-3-methyl-l-(3’-fluorodeoxyglucaminophenyl)-2,3,4,5-tetrahydro-lH-3-benzazepine]
  Ki: 0.0195 µM
